These results are taken from ChEMBL document CHEMBL1201862, “PubChem BioAssay data set” (2004).

Calls of active or inactive are those of the source.

What all share (format): functional
Experiment [1] addresses T1, Apoptotic protease-activating factor 1 (Homo sapiens, UniProt O14727).
T1 sequence (O14727 whole entry): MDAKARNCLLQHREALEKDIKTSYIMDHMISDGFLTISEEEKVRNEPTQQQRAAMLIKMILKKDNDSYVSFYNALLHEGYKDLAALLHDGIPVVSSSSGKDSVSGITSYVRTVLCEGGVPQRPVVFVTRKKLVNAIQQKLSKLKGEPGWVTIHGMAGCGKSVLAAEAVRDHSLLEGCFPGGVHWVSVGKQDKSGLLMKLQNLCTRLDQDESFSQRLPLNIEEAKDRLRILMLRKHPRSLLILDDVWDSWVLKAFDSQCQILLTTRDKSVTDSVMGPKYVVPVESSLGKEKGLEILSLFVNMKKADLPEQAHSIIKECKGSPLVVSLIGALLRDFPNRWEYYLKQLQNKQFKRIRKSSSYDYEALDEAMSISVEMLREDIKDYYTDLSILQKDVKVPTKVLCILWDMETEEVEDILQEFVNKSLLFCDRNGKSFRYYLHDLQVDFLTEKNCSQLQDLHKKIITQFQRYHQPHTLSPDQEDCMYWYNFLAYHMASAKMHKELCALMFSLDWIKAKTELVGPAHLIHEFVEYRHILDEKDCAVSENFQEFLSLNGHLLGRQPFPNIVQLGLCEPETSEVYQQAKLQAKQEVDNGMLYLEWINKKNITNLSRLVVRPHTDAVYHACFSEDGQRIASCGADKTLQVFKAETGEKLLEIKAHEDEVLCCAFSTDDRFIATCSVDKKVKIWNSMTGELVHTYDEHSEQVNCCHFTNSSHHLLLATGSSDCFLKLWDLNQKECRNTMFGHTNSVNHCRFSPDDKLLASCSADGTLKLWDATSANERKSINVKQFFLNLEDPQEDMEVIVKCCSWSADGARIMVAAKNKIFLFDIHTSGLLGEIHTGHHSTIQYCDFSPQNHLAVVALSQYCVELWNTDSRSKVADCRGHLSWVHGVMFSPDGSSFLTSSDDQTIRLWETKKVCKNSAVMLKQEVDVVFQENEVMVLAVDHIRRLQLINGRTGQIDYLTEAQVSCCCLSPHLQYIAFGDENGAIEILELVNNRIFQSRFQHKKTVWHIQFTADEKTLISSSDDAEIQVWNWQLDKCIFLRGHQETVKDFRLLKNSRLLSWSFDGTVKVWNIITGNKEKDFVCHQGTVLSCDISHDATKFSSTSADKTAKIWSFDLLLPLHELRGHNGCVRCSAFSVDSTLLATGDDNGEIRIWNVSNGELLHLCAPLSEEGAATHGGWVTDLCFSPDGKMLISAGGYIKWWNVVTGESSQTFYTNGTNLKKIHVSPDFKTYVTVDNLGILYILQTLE

The target of experiment [2] is Ribosomal protein S6 kinase alpha-3 (Homo sapiens, UniProt P51812).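 Note: measured within a kinome-wide profiling panel.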
In experiment [3] the target is Protein kinase C zeta type (Homo sapiens, UniProt Q05513).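 Note: measured as one member of a broad kinase profiling panel.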
Experiment [4] deals with 5'-AMP-activated protein kinase catalytic subunit alpha-1 (Homo sapiens, UniProt Q13131).
5'-AMP-activated protein kinase catalytic subunit alpha-1, sequence (Q13131 whole entry): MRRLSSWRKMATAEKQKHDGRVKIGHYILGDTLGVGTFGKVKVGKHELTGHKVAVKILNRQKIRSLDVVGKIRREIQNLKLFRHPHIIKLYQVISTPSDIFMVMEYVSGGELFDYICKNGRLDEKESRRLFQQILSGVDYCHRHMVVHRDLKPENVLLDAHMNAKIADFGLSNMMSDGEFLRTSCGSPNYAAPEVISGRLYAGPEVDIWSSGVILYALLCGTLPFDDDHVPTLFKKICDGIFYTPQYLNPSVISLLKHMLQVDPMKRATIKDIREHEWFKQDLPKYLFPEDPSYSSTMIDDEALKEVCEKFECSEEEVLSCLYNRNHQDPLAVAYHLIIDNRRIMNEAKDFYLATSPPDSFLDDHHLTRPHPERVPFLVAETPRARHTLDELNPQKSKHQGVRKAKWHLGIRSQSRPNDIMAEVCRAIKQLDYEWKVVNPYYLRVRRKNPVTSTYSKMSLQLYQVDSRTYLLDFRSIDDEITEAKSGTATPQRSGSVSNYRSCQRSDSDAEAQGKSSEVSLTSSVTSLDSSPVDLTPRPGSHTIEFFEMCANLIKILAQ
The target of experiment [5] is Cyclin-dependent kinase 2 (Homo sapiens, UniProt P24941).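 Note: CDK2 measured as one member of a broad kinome profiling panel.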
Experiment [6] deals with Serine/threonine-protein kinase PAK 1 (Homo sapiens, UniProt Q13153).
Serine/threonine-protein kinase PAK 1, sequence (Q13153 whole entry): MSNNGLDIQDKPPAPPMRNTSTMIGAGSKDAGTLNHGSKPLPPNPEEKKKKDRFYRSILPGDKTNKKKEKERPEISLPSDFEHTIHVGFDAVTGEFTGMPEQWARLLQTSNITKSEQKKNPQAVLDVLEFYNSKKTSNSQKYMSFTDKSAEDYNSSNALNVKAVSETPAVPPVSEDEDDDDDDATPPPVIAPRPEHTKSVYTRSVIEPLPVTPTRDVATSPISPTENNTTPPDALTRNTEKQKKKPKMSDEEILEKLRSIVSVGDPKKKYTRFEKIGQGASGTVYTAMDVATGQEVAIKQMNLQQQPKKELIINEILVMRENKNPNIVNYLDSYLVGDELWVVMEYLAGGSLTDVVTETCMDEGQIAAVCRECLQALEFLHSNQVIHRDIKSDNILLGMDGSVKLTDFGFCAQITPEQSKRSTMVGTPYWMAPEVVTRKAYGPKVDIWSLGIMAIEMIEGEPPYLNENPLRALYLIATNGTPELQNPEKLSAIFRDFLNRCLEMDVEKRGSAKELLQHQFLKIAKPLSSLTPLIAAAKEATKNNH
Experiment [7] concerns the target Calcium/calmodulin-dependent protein kinase type II subunit delta (Homo sapiens, UniProt Q13557).
In experiment [8] the target is Fibroblast growth factor receptor 1 (Homo sapiens, UniProt P11362).
Fibroblast growth factor receptor 1, sequence (P11362 whole entry): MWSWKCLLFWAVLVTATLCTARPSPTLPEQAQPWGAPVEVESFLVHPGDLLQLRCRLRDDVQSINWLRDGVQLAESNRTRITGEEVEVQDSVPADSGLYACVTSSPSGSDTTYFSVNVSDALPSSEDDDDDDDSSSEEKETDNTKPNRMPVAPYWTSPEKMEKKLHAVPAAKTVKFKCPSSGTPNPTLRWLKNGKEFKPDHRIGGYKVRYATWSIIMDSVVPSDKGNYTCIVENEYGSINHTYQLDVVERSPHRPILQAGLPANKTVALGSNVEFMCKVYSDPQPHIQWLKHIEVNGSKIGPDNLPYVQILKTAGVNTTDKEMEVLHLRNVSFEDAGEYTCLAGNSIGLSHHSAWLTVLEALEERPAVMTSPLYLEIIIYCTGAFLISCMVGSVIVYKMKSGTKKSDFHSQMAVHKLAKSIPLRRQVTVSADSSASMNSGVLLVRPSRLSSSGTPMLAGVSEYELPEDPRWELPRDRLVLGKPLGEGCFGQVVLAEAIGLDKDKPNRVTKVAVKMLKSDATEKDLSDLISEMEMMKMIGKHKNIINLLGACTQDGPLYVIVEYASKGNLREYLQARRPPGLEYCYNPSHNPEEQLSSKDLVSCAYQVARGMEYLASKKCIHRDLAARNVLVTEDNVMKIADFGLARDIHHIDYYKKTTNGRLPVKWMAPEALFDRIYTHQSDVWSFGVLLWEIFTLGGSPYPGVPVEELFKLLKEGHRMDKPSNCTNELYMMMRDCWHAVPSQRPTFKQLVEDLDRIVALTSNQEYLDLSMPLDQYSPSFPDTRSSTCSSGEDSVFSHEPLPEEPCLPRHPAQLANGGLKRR
Experiment [9] has as its target Mitogen-activated protein kinase 9 (Homo sapiens, UniProt P45984).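 Note: value from a kinome panel profiling assay, MAPK9 panel entry.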
Experiment [10] addresses Serine/threonine-protein kinase N2 (Homo sapiens, UniProt Q16513).
In experiment [11] the target is Serine/threonine-protein kinase TAO1 (Homo sapiens, UniProt Q7L7X3).
Experiment [12] concerns the target Testis-specific serine/threonine-protein kinase 1 (Homo sapiens, UniProt Q9BXA7).
Experiment [13] concerns the target MAP/microtubule affinity-regulating kinase 3 (Homo sapiens, UniProt P27448).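 Note: MARK3 affinity measured as one member of a kinome panel.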
Experiment [14] addresses Insulin receptor (Homo sapiens, UniProt P06213).
Experiment [15] concerns the target Mitogen-activated protein kinase kinase kinase 20 (Homo sapiens, UniProt Q9NYL2).
The target in experiment [16] is Serine/threonine-protein kinase pim-3 (Homo sapiens, UniProt Q86V86).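 Note: value obtained as one member of a broad kinase panel profiling effort.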
The target of experiment [17] is Proto-oncogene tyrosine-protein kinase Src (Homo sapiens, UniProt P12931).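 Note: SRC entry within a kinome-wide kinase profiling panel.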
Experiment [18] concerns the target Tyrosine-protein kinase Srms (Homo sapiens, UniProt Q9H3Y6).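 Note: SRMS measured as one member of a kinome-wide kinase profiling panel.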
Experiment [19] deals with Glycogen synthase kinase-3 alpha (Homo sapiens, UniProt P49840).
Experiment [20] addresses Serine/threonine-protein kinase Chk1 (Homo sapiens, UniProt O14757).
The target in experiment [21] is MAP kinase-interacting serine/threonine-protein kinase 2 (Homo sapiens, UniProt Q9HBH9).
The target in experiment [22] is Mitogen-activated protein kinase 1 (Homo sapiens, UniProt P28482).
Experiment [23] addresses Interleukin-1 receptor-associated kinase 4 (Homo sapiens, UniProt Q9NWZ3).
Experiment [24] has as its target 3-phosphoinositide-dependent protein kinase 1 (Homo sapiens, UniProt O15530).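 Note: value comes from the Navigating the Kinome panel, PDPK1 member.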
Experiment [25] has as its target Serine/threonine-protein kinase DCLK1 (Homo sapiens, UniProt O15075).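 Note: affinity for DCLK1 (listed as DCAMKL1) measured as one member of a kinome-wide kinase profiling panel.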
Experiment [26] deals with STE20-like serine/threonine-protein kinase (Homo sapiens, UniProt Q9H2G2).
The target of experiment [27] is Serine/threonine-protein kinase PLK1 (Homo sapiens, UniProt P53350).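 Note: PLK1 measured as one member of a kinome-wide profiling panel.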
Serine/threonine-protein kinase PLK1, sequence (P53350 whole entry): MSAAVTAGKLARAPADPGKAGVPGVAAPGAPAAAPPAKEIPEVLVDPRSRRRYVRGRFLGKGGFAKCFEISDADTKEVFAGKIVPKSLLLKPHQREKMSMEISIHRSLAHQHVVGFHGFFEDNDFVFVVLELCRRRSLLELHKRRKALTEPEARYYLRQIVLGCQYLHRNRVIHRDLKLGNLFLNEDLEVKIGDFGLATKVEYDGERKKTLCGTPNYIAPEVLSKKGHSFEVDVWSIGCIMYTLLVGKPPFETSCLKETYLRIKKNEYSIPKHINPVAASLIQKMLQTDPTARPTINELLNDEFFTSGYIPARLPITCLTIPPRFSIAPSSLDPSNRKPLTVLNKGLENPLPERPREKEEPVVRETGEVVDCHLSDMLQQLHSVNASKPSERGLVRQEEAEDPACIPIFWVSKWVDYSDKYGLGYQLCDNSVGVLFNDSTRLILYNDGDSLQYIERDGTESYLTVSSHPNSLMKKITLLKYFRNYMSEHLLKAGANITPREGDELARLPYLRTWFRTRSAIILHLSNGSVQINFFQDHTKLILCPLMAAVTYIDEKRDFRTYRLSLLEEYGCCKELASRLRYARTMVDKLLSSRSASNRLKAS
Experiment [28] concerns the target Dual specificity protein kinase CLK4 (Homo sapiens, UniProt Q9HAZ1).
Experiment [29] addresses Serine/threonine-protein kinase BRSK1 (Homo sapiens, UniProt Q8TDC3).

Interleukin-1 receptor-associated kinase 4, sequence (Q9NWZ3 whole entry): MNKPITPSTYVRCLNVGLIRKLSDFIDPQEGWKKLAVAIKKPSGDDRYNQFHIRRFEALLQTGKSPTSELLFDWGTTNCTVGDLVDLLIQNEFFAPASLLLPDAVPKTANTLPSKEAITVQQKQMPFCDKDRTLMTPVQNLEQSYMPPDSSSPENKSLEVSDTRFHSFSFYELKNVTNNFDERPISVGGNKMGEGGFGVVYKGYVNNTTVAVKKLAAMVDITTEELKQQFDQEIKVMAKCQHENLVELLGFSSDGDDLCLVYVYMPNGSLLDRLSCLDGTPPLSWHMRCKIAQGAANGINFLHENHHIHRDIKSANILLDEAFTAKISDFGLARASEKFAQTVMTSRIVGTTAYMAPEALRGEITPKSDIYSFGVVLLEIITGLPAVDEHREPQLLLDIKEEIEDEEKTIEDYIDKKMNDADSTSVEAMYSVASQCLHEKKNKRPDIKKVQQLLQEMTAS
Mitogen-activated protein kinase kinase kinase 20, sequence (Q9NYL2 whole entry): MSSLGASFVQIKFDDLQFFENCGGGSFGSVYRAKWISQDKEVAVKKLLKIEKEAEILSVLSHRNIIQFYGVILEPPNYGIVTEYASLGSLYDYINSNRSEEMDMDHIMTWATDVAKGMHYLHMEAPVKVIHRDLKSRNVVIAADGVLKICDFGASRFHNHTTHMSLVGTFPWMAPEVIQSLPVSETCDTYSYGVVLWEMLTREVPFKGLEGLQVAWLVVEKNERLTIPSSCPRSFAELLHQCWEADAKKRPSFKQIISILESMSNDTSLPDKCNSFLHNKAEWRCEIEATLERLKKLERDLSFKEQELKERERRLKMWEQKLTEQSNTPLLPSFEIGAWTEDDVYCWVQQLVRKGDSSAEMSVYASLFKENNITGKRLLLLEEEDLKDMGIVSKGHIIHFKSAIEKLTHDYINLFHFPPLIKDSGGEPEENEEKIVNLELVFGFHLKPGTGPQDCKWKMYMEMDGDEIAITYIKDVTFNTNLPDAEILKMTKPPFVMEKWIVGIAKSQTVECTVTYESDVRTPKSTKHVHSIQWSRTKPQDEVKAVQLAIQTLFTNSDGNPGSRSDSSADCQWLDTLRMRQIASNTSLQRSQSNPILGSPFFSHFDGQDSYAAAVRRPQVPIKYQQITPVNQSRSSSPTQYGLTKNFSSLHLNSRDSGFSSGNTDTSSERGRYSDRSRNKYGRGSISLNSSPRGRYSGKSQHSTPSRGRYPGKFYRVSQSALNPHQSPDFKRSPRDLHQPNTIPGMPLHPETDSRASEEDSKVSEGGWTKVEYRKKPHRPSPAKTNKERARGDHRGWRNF
MAP/microtubule affinity-regulating kinase 3, sequence (P27448 whole entry): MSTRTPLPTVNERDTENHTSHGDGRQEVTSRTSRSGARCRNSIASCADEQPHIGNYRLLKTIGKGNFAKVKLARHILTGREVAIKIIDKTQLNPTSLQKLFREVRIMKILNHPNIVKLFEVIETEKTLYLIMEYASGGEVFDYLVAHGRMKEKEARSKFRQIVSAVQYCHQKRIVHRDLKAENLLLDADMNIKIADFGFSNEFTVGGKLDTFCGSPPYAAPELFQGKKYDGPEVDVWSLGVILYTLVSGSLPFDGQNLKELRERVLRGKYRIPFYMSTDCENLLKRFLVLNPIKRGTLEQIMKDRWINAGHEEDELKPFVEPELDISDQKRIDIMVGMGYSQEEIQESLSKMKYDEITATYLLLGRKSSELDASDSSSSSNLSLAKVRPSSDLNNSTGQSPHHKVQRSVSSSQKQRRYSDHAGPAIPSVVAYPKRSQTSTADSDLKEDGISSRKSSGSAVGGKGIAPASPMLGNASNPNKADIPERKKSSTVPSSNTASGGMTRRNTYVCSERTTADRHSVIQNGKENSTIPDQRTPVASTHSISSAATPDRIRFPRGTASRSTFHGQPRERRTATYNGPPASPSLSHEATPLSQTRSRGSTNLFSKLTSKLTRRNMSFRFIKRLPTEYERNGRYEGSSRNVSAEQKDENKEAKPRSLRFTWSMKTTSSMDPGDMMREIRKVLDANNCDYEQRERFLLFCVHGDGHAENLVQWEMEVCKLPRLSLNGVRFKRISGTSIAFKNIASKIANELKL
Mitogen-activated protein kinase 9, sequence (P45984 whole entry): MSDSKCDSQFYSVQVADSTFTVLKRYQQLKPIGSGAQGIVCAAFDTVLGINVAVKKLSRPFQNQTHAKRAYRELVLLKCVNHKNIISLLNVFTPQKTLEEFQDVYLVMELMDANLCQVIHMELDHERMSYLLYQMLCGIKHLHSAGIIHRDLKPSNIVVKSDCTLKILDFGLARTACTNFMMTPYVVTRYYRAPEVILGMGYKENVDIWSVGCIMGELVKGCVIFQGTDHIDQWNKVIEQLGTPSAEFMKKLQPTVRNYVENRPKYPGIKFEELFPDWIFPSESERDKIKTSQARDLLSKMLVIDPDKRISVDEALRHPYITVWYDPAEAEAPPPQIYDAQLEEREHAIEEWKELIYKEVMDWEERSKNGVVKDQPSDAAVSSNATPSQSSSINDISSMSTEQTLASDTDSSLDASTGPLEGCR

Take `CCc1ccc(S(=O)(=O)/N=C2\C=C(NS(=O)(=O)c3ccccc3)C(=O)c3ccccc32)cc1`: the IC50 (usually the concentration needed to halve the response being measured) in [1] is 13.3 µM (active).

Take `Cn1cncc1C(OCc1c(-c2ccc(OC(F)(F)F)cc2)cc(C#N)c(=O)n1C)c1ccc(C#N)cc1` (centres undefined): the Ki (commonly a dissociation constant, usually derived from enzyme kinetics or from competition with a known ligand) is > 7.94 µM (inactive) in experiment [2]; > 7.94 µM (inactive) in experiment [3]; > 1.58 µM (inactive) in experiment [4]; > 7.94 µM (inactive) in experiment [5]; > 10 µM (inactive) in experiment [6]; > 6.31 µM (inactive) in experiment [7]. Also, the Ki in experiment [8] was > 5.01 µM (inactive); in [9], > 3.98 µM (inactive); in experiment [10], > 7.94 µM (inactive); in [11] it was 3.98 µM (active); in experiment [12], > 1.58 µM (inactive); in experiment [13], 0.794 µM (active). Besides, the Ki in [14] is > 5.01 µM (inactive); in experiment [15], > 7.94 µM (inactive); in experiment [16], > 7.94 µM (inactive); in experiment [17] it was > 2 µM (inactive); in experiment [18], > 1.58 µM (inactive); in [19], > 7.94 µM (inactive). Also, the Ki in [20] is > 7.94 µM (inactive); in experiment [21] it was > 10 µM (inactive); in experiment [22], > 7.94 µM (inactive); in experiment [23] it was > 10 µM (inactive); in experiment [24] it was > 3.98 µM (inactive); in [25], > 10 µM (inactive). Further, the Ki in experiment [26] was > 10 µM (inactive); in experiment [27], > 7.94 µM (inactive); in experiment [28] it was > 10 µM (inactive); in [29] it was > 10 µM (inactive).
